Structures can show the parent of a compound that is named as a salt.
Experiments:
Format in all cases: cell-based
[1] = test system: Candida albicans (ATCC #10231); test: Minimum Inhibitory Concentration (MIC) synergy study, yeast; settings: for MIC: Candida albicans; for Minimum Inhibitory Concentration (ppm) MBIT: C. albicans, MBIT alone (1:0) or MBIT portion of the mixture
Description: (§1) The synergism of the biocides combination of the present invention was determined using the method described by Kull, F. C, et. all in Applied Microbiology 9:538-541 (1961). […] In this invention, two different approaches of synergistic study were conducted. One synergistic study is determined based on the minimum inhibitory concentration (MIC), the lowest concentration of a biocide prevents the growth of tested microorganism under a specific set of conditions. The second study was based on three to four consecutive challenge testing. This test was conducted to take biocide mode of action and speed of kill into a consideration.
(§2) The microorganisms tested are Escherichia coli (E. coli, ATCC #8739), yeast, Candida albicans (c. albicans, ATCC #10231) and mold, Aspergillus niger (a. niger, ATCC #16404). The final concentration of microorganisms in the tested media is about 10^4 cfu/mL
(§3) MBIT synergy with a secondary biocide was determined by evaluating the minimum biocide or biocide blend concentration required to inhibit microbial growth. All studies were conducted using a 96 well microtiter plate format. For all studies, 200 μl of microbial growth media, containing various concentrations of MBIT alone, the secondary biocide alone, or combinations of both biocide chemistries, was added to individual wells of a microtiter plate. Specifically, Tryptic Soy Broth (TSB) was utilized for bacteria (E. coli, ATCC #8739), Yeast Malt Extract Broth (YMB) for yeast (Candida albicans, ATCC #10231) and Potato Dextrose Broth (PDB) for mold (Aspergillus niger, ATCC #16404). Test organisms, at a final concentration of 10^4 CFU/mL or 10^4 spores/mL, were applied to each well in parallel experiments to initiate the MIC evaluations. Growth medium containing no biocide was utilized as a control in each experimental setup to confirm the growth viability of each organism. Eight concentrations (2-fold dilutions) of each individual biocide were evaluated in the microbial growth inhibition studies in addition to the 64 possible combinations of these biocide concentrations. Evaluation of the individual biocide concentrations is required to achieve an inhibitory concentration end point for synergy index calculation. […] Individual wells were scored as growth or no growth based on visual organism growth turbidity.

[2] = test system: Escherichia coli (ATCC #8739); test: Minimum Kill Concentration (MKC) repeated challenge test, bacteria; settings: for MIC: Escherichia coli; for Minimum Inhibitory Concentration (ppm) MBIT: MBIT alone (1:0) or MBIT portion of the mixture
Description: as §1
(§4) MKC evaluations were utilized to determine the synergy of MBIT with the co-biocides DXN (6-Acetoxy-2,4-dimethyl-m-dioxane) and THNM (2-Hydroxymethyl-2-nitro-1,3-propanediol) due to the inability to evaluate these particular biocide chemistries in MIC evaluations. The following test methods were designed for the evaluation of the aforementioned synergistic combinations. The results can be found in Tables 7 and 8.
Testing began (day 0) by applying sterile water, supplemented with 2.0% TSB, to each well of a 96-well microtiter plate. Various concentrations of MBIT alone, the co-biocide alone, or combinations of both biocide chemistries, were added to individual wells of the microtiter plate followed by addition of Escherichia coli (ATCC #8739) at a final concentration of 5×10^4 CFU/mL. Equivalent inoculations were applied on days 7, 14 and 21 of the study. To determine the extent of bacterial kill, an aliquot (20 μl) of each sample was taken on days 1, 7, 8, 14, 15, 21, 22 and transferred to tryptic soy broth (180 μl). After 48 hours of incubation at 30° C., bacterial kill (to a maximum detection limit of 5×10^1 CFU/mL) was visually determined by the presence or lack of turbidity within the TSB.

[3] = test system: Aspergillus niger (ATCC #16404); test: Minimum Inhibitory Concentration (MIC) synergy study, mold; settings: for Minimum Inhibitory Concentration (ppm) MBIT: A. niger, MBIT alone (1:0) or MBIT portion of the mixture
Description: as §1, §2, §3

[4] = test system: Escherichia coli (ATCC #8739); test: Minimum Inhibitory Concentration (MIC) synergy study, bacteria; settings: for Minimum Inhibitory Concentration (ppm) MBIT: E. coli, MBIT alone (1:0) or MBIT portion of the mixture
Description: as §1, §2, §3

[5] = test system: Aspergillus niger (ATCC #16404); test: Minimum Kill Concentration (MKC) repeated challenge test, mold
Description: as §1, §4
(§5) Testing began (day 0) by applying sterile water, supplemented with 2.0% potato dextrose broth, to each well of a 96-well microtiter plate. […] After 48-96 hours of incubation at 30° C., mold kill (to a maximum detection limit of 5×10^1 spores/mL) was visually determined by the presence or lack of turbidity within the PDB.

[6] = test system: Candida albicans (ATCC #10231); test: Minimum Kill Concentration (MKC) repeated challenge test, yeast
Description: as §1, §4
as §5, with “yeast malt extract” for “potato dextrose”, “48” for “48-96”, “yeast” for “mold”, “CFU/mL)” for “spores/mL)”, “YMB.” for “PDB.”

SMILES: CCNc1nc(NC(C)(C)C)nc(SC)n1 [Terbutryn]
- MIC ([1]; ATCC10231, Table 5, C. albicans, Terbutryn alone (0:1) or Terbutryn portion of the mixture, read-out: Minimum Inhibitory Concentration (ppm) Terbutryn): > 20000 µg/mL

SMILES: O=[N+]([O-])C(CO)(CO)CO [THNM, 2-Hydroxymethyl-2-nitro-1,3-propanediol]
- MIC ([2]; ATCC8739, 504 h, Table 8, kill of E. coli at day 21, THNM alone (0:1) or value printed for the mixture, read-out: Minimum Inhibitory Concentration (ppm) THMN): 125 µg/mL

SMILES: CCCCCCCCCCCCNC(=N)N [DDG, Dodecylguanidine hydrochloride]
- MIC ([1]; ATCC10231, read-out: Minimum Inhibitory Concentration (ppm) DDG): 2000 µg/mL
- MIC ([3]; Aspergillus niger, ATCC16404, read-out: Minimum Inhibitory Concentration (ppm) DDG): 750 µg/mL
- MIC ([4]; Escherichia coli, ATCC8739, read-out: Minimum Inhibitory Concentration (ppm) DDG): 875 µg/mL

SMILES: Cn1sc2ccccc2c1=O [MBIT, N-methyl-1,2-benzisothiazolin-3-one]
- Minimum Inhibitory Concentration (ppm) MBIT ([5]; Table 7, MBIT/DXN study, kill of A. niger at Day 21, MBIT alone (1:0) or MBIT portion of the mixture): 10 ppm
- Minimum Inhibitory Concentration (ppm) MBIT ([1]; Table 1, MBIT/DDG study): 6.25 ppm
- Minimum Inhibitory Concentration (ppm) MBIT ([1]; Table 2, MBIT/PHMB study): 0.3125 ppm
- Minimum Inhibitory Concentration (ppm) MBIT ([1]; Table 5, MBIT/Terbutryn study): 3 ppm
- Minimum Inhibitory Concentration (ppm) MBIT ([2]; Table 7, MBIT/DXN study, kill of E. coli at day 7): 62.5 ppm
- Minimum Inhibitory Concentration (ppm) MBIT ([2]; Table 8, MBIT/THNM study, kill of E. coli at day 21): 125 ppm
- Minimum Inhibitory Concentration (ppm) MBIT ([6]; Table 7, MBIT/DXN study, kill of C. albicans at day 21, MBIT alone (1:0) or MBIT portion of the mixture): 6.25 ppm
- Minimum Inhibitory Concentration (ppm) MBIT ([3]; Table 1, MBIT/DDG study): 10 ppm
- Minimum Inhibitory Concentration (ppm) MBIT ([3]; Table 3, MBIT/NaPT study): 6.3 ppm
- Minimum Inhibitory Concentration (ppm) MBIT ([3]; Table 4, MBIT/NaOPP study): 6.3 ppm
- Minimum Inhibitory Concentration (ppm) MBIT ([4]; Table 1, MBIT/DDG study): 62.5 ppm
- Minimum Inhibitory Concentration (ppm) MBIT ([4]; Table 2, MBIT/PHMB study): 12.5 ppm
- Minimum Inhibitory Concentration (ppm) MBIT ([4]; Table 3, MBIT/NaPT study): 25 ppm

SMILES: [Na+].[O-][n+]1ccccc1[S-] [NaPT, Sodium pyrithione]
- Minimum Inhibitory Concentration (ppm) NaPT ([3]; Table 3, A. niger, NaPT alone (0:1) or NaPT portion of the mixture): 25 ppm
- Minimum Inhibitory Concentration (ppm) NaPT ([4]; Table 3, E. coli, NaPT alone (0:1) or NaPT portion of the mixture): 2.5 ppm

SMILES: [Na+].[O-]c1ccccc1-c1ccccc1 [NaOPP, sodium ortho-phenylphenate]
- Minimum Inhibitory Concentration (ppm) NaOPP ([3]; Table 4, A. niger, NaOPP alone (0:1) or NaOPP portion of the mixture): 200 ppm

SMILES: CC(=O)OC1CC(C)OC(C)O1 (stereo not drawn) [DXN, 6-Acetoxy-2,4-dimethyl-m-dioxane]
- MIC ([5]; Aspergillus niger, ATCC16404, 504 h, Table 7, kill of A. niger at Day 21, DXN alone (0:1) or DXN portion of the mixture, read-out: Minimum Inhibitory Concentration (ppm) DXN): 750 µg/mL
- MIC ([2]; ATCC8739, 168 h, Table 7, kill of E. coli at day 7, DXN alone (0:1) or DXN portion of the mixture, read-out: Minimum Inhibitory Concentration (ppm) DXN): 875 µg/mL
- MIC ([6]; Candida albicans, ATCC10231, 504 h, Table 7, kill of C. albicans at day 21, DXN alone (0:1) or DXN portion of the mixture, read-out: Minimum Inhibitory Concentration (ppm) DXN): 2000 µg/mL

From US9510597B2, “Microbicidal composition” (Dow Global Technologies LLC, priority 2012, dated 2016)
